Paper PMC12627862, “Therapeutic targeting of endothelial calcium signaling accelerates the resolution of lung injury” (Signal Transduction and Targeted Therapy, 2025)
Starred links: 1 amine or outer side, 2 acyl side, 3 side chain; linkers in the order of their positions; H or OH if unused. Positions of bridges follow the written chain, without caps; N, C: chain ends. Non-standard residues stand in square brackets, D forms with d. Residues, ends and D or L forms follow the SMILES beside them. No end group written: not given here. ξ: configuration not given here. *: point of attachment. X2 = C[C@@](CCCCC=[*:3])(N[*:1])C(=O)[*:2]; Leu(4,5-dehydro) = C=C(C)C[C@H](N)C(=O)O; Oic = O=C(O)[C@@H]1C[C@@H]2CCCC[C@@H]2N1; d(tBuAla) = CC(C)(C)C[C@@H](N)C(=O)O; dVal(3-OH) = CC(C)(O)[C@@H](N)C(=O)O; cisHyp = O=C(O)[C@@H]1C[C@H](O)CN1; tBuAla = CC(C)(C)C[C@H](N)C(=O)O; Myristoyl = CCCCCCCCCCCCCC(=O)*; R5 = C=CCCC[C@@](C)(N)C(=O)O; X1 = O=C(CC(O)CN[*:1])[*:2]; 3Amb = NCc1cccc(C(=O)O)c1; 4Amb = NCc1ccc(C(=O)O)cc1; ξP = O=C(O)C1CCCN1

Assays:
[1] = target: EB3 interactions with IP3R3-GFP (Homo sapiens, UniProt Q9UPY8); assay: Competitive binding: inhibition of EB3 interaction with IP3R3-GFP in vitro; format: biochemical; conditions: for Competitive Binding at 250nM (% Inhibition): 0.25 µM; for inhibition at 0.25 µM: 250 nM
Sequence of EB3 interactions with IP3R3-GFP (Q9UPY8 whole entry): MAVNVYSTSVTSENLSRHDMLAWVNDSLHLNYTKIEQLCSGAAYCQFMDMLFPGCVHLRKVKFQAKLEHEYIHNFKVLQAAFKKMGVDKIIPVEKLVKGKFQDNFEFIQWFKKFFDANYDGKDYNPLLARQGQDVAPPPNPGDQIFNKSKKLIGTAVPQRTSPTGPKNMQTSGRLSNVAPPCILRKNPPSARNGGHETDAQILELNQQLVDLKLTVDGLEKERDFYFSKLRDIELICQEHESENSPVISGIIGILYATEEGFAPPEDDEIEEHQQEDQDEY
Source text: We tested the efficacy of twenty-three compounds in inhibiting EB3 interactions with IP3R3-GFP via an in vitro approach developed by us[12],[13]. […] Guided by NMR studies, we predicted the binding pose of 109 to EB3 via AutoDock Vina[13],[24],[25].

[2] = Lipophilicity of peptides, logP(oct/wat); format: physicochemical
Description: (§1) The solubilities of the synthesized compounds were determined experimentally (Supplementary Table 2). Most compounds were highly soluble at a 1 mM concentration; however, some compounds tended to form aggregates. These compounds were excluded from further studies. In addition, we experimentally determined the lipophilicity of each compound, logP(oct/wat)=log(soluteoct/solutewat ), which is the partition coefficient of a compound between aqueous (water) and lipophilic (octanol) phases (Supplementary Table 2).
Lipophilicity of peptides. Two separate solutions were obtained: an aqueous phosphate buffer with saturated n-octanol, and an n-octanol solution with saturated phosphate buffer. Peptides were then dissolved and diluted in the phosphate buffer. Different partitions were then made with different n-octanol to water ratio before shaking for an hour at room temperature. The aqueous phase and n-octanol were allowed to equilibrate, and each phase was extracted and analyzed for peptide concentrations. The ratio of peptide concentration in n-octanol to that in water is expressed as log(P).

[3] = system: human primary microvascular lung endothelial cells (HLMVECs); assay: Peptide uptake in endothelial cells; format: cell-based
Description: We next analyzed the cell-penetrating properties of the selected compounds, hereafter referred to as vascular therapeutics (VT). The rate of uptake of 5’6-FAM (fluorescein)-labeled compounds by human primary microvascular lung endothelial cells (HLMVECs) was determined via confocal fluorescence live-cell imaging. FAM-labeled Myr-EBIN[13] and fluorescein alone were used as positive and negative controls, respectively. The t½ uptake and maximal uptake were determined from changes in the integrated fluorescence intensity over a 30 min period (Fig. 2a and Supplementary Fig. 1a). […] Like Myr-EBIN, compounds VT-107, -108 and -109 presented the highest uptake rates of 92.5 ± 5.0%, 82.5 ± 2.8% and 94.7 ± 4.9%, respectively, whereas the linear compound VT-101 was taken up less efficiently, with an average uptake of 58.4 ± 2.7% (Fig. 2a). […] The t½ uptake, however, varied between the tested compounds (Fig. 2b). The stapled compounds presented the shortest t½ uptake, whereas the linear compounds presented the longest t½ (Fig. 2b).
Peptide uptake in endothelial cells. The rate of peptide uptake by primary human microvascular endothelial cells was measured using 5’6FAM (fluorescein)-labeled peptides and confocal fluorescence live-cell imaging, with fluorescein alone used as a negative control. Changes in intracellular fluorescence for each peptide were monitored over time, and saponin, a detergent, was added at the end of the experiment to induce full uptake of the tested peptides by endothelial cells. The fluorescence intensity inside the cells was tracked over time, and the half-time uptake (t1/2) and maximum uptake were calculated.

[4] = Aggregation / solubility at 1 mM; format: physicochemical; conditions: summary calls it solubility at 1mM
Description: as §1

[5] = Stability of selected EB3 inhibitors in human blood plasma; format: in vitro ADME; conditions: human, plasma
Description: Supplementary Table 3. Stability of selected EB3 inhibitors in human blood plasma. The indicated inhibitors were incubated with human plasma at 37 °C and samples were taken at the indicated time points. Plasma proteins were precipitated with ice-cold perchloric acid (60%); the concentration of compounds was measured in supernatant using a liquid chromatography-tandem mass spectrometry (LC-MS/MS). See also Figures 1 and 2.

Aggregation at 1mM [4] | inhibition at 0.25 µM [1] [%] | logD [2] | Molecule | further results
 |  |  | FTEIPTI [compound 000, (S)-4-((2S,3R)-2-((S)-2-amino-3-phenylpropanamido)-3-hydroxybutanamido)-5-(((2S,3S)-1-((S)-2-(((2S,3R)-1-(((1S,2S)-1-carboxy-2-methylbutyl)amino)-3-hydroxy-1-oxobutan-2-yl)carbamoyl)pyrrolidin-1-yl)-3-methyl-1-oxopentan-2-yl)amino)-5-oxopentanoic acid, reference compound] | Competitive Binding at 250nM (% Inhibition) [1]: no inhibition; Competitive Binding at 250nM (% Inhibition) ([1]; listed as EBIN): did not; Log P (Octanol/Water) [2]: 0.75; half-time uptake t1/2 [3]: 2.50 ± 0.06 min
weak signal | 36 | 0.03 | CC[C@H](C)[C@H](NC(=O)[C@H](NC(=O)[C@@H]1C[C@H](O)CN1C(=O)[C@H](CC(C)(C)C)NC(=O)c1cccc(CNC(=O)[C@H](NC(=O)[C@@H](N)Cc2ccccc2)C(C)(C)O)c1)C(C)(C)O)C(=O)O [compound 042, ((R)-2-((2S,4S)-1-((S)-2-(3-(((R)-2-((S)-2-amino-3-phenylpropanamido)-3-hydroxy-3-methylbutanamido)methyl)benzamido)-4,4-dimethylpentanoyl)-4-hydroxypyrrolidine-2-carboxamido)-3-hydroxy-3-methylbutanoyl)-L-isoleucine] (H-F[dVal(3-OH)][3Amb][tBuAla][cisHyp][dVal(3-OH)]I-OH) | 
0.35 | 39 | -0.81 | CC[C@H](C)[C@H](NC(=O)[C@@H](NC(=O)[C@@H]1CCCN1C(=O)[C@@H](NC(=O)[C@H](CCC(=O)O)NC(=O)[C@@H](NC(=O)[C@H](N)Cc1ccccc1)[C@@H](C)O)[C@@H](C)CC)[C@@H](C)O)C(=O)O [compound 004, (S)-4-((2S,3R)-2-((R)-2-amino-3-phenylpropanamido)-3-hydroxybutanamido)-5-(((2S,3S)-1-((S)-2-(((2S,3R)-1-(((1S,2S)-1-carboxy-2-methylbutyl)amino)-3-hydroxy-1-oxobutan-2-yl)carbamoyl)pyrrolidin-1-yl)-3-methyl-1-oxopentan-2-yl)amino)-5-oxopentanoic acid] (H-[dF]TEIPTI-OH) | 
0.35 | 36 | -0.19 | CC[C@H](C)[C@H](NC(=O)[C@@H](NC(=O)[C@@H]1C[C@H](O)CN1C(=O)[C@H](CC(C)(C)C)NC(=O)[C@H](CCC(=O)O)NC(=O)[C@H](NC(=O)[C@@H](N)Cc1ccccc1)C(C)(C)O)[C@@H](C)O)C(=O)O [compound 038, (S)-4-((R)-2-((S)-2-amino-3-phenylpropanamido)-3-hydroxy-3-methylbutanamido)-5-(((S)-1-((2S,4S)-2-(((2S,3R)-1-(((1S,2S)-1-carboxy-2-methylbutyl)amino)-3-hydroxy-1-oxobutan-2-yl)carbamoyl)-4-hydroxypyrrolidin-1-yl)-4,4-dimethyl-1-oxopentan-2-yl)amino)-5-oxopentanoic acid] (H-F[dVal(3-OH)]E[tBuAla][cisHyp]TI-OH) | 
weak signal | 40 | -0.3 | C=C(C)C[C@H](NC(=O)c1ccc(CNC(=O)CC(O)CN)cc1)C(=O)N1[C@H](C(=O)NCC(O)CC(=O)N[C@@H](CC(C)(C)C)C(=O)O)C[C@@H]2CCCC[C@@H]21 (stereo partly drawn) [compound 104, (2S)-2-(4-((2S,3aS,7aS)-1-((2S)-2-(4-((4-amino-3-hydroxybutanamido)methyl)benzamido)-4-methylpent-4-enoyl)octahydro-1H-indole-2-carboxamido)-3-hydroxybutanamido)-4,4-dimethylpentanoic acid.] | half-time uptake t1/2 [3]: 8.56 ± 0.48 min
weak signal | 70 | -0.37 | C=C(C)C[C@H](NC(=O)CC(O)CNC(=O)[C@@H]1C[C@@H]2CCCC[C@@H]2N1C(=O)[C@H](CC(=C)C)NC(=O)c1ccc(CNC(=O)[C@H](NC(=O)[C@H](N)Cc2ccccc2)C(C)(C)O)cc1)C(=O)O (stereo partly drawn) [compound 105, (2S)-2-(4-((2S,3aS,7aS)-1-((S)-2-(4-(((R)-2-((R)-2-amino-3-phenylpropanamido)-3-hydroxy-3-methylbutanamido)methyl)benzamido)-4-methylpent-4-enoyl)octahydro-1H-indole-2-carboxamido)-3-hydroxybutanamido)-4-methylpent-4-enoic acid.] (H-[dF][dVal(3-OH)][4Amb][Leu(4,5-dehydro)][Oic][X1][Leu(4,5-dehydro)]-OH) | 
 |  |  | CCCCCCCCCCCCCC(=O)N[C@@H](Cc1ccccc1)C(=O)N[C@H](C(=O)N[C@@H](CCC(=O)O)C(=O)N[C@H](C(=O)N1CCC[C@H]1C(=O)N[C@H](C(=O)N[C@H](C(=O)O)[C@@H](C)CC)[C@@H](C)O)[C@@H](C)CC)[C@@H](C)O [Myr-EBIN, reference compound] (Myristoyl-FTEIPTI-OH) | remaining at 1.5 h [5]: 105%; remaining at 20 h [5]: 53%
0.18 | 30 | 0.71 | CC[C@H](C)[C@H](NC(=O)CC(O)CNC(=O)[C@@H]1[C@@H]2CCCC[C@@H]2CN1C(=O)[C@H](CC(C)(C)C)NC(=O)c1cccc(CNC(=O)[C@H](NC(=O)[C@@H](N)Cc2ccccc2)C(C)(C)O)c1)C(=O)O (stereo partly drawn) [compound 041, (4-((1S,3aS,7aR)-2-((S)-2-(3-(((R)-2-((S)-2-amino-3-phenylpropanamido)-3-hydroxy-3-methylbutanamido)methyl)benzamido)-4,4-dimethylpentanoyl)octahydro-1H-isoindole-1-carboxamido)-3-hydroxybutanoyl)-L-isoleucine] | 
1.39 | 45 | -1 | CC[C@@H](C)[C@H]1NC(=O)[C@H]([C@@H](C)O)NC(=O)C2CCCN2C(=O)[C@@H](CC(C)(C)C)NC(=O)[C@](C)(NC(=O)[C@@H](CCC(=O)O)NC(=O)[C@H](NC(=O)[C@H](N)Cc2ccccc2)[C@H](C)O)CCC/C=C\CCCC[C@@](C)(C(=O)N[C@@H](CCCNC(=N)N)C(=O)O)NC1=O (stereo partly drawn) [compound 028, (4R)-4-((2R,3S)-2-((R)-2-amino-3-phenylpropanamido)-3-hydroxybutanamido)-5-(((3S,6R,9S,19R,22R,Z)-6-((R)-sec-butyl)-9-(((S)-1-carboxy-4-guanidinobutyl)carbamoyl)-3-((R)-1-hydroxyethyl)-9,19-dimethyl-22-neopentyl-1,4,7,20,23-pentaoxo-2,3,4,5,6,7,8,9,10,11,12,13,16,17,18,19,20,21,22,23,25,26,27,27a-tetracosahydro-1H-pyrrolo[1,2-d][1,4,7,10,13]pentaazacyclopentacosin-19-yl)amino)-5-oxopentanoic acid] (H-[dF][dT][dE][R5][d(tBuAla)][ξP]T[dI][X2]R-OH; staple (Z) 4-9) | 
weak signal | 51 | -0.59 | C=C(C)C[C@H](NC(=O)[C@@H](NC(=O)[C@@H]1CCCN1C(=O)[C@H](CC(C)(C)C)NC(=O)[C@H](CCC(=O)O)NC(=O)[C@H](NC(=O)[C@H](N)Cc1ccccc1)C(C)(C)O)[C@@H](C)O)C(N)=O [compound 044, (S)-4-((R)-2-((R)-2-amino-3-phenylpropanamido)-3-hydroxy-3-methylbutanamido)-5-(((S)-1-((S)-2-(((2S,3R)-1-(((S)-1-amino-4-methyl-1-oxopent-4-en-2-yl)amino)-3-hydroxy-1-oxobutan-2-yl)carbamoyl)pyrrolidin-1-yl)-4,4-dimethyl-1-oxopentan-2-yl)amino)-5-oxopentanoic acid] (H-[dF][dVal(3-OH)]E[tBuAla]PT[Leu(4,5-dehydro)]-NH2) | 
